Assays:
[1] = target: T1, adenosine A2 receptor (Rattus norvegicus, UniProt P30543); assay: Adenosine Receptor Binding - A2 Receptor Affinity (RBA2), [3H]NECA displacement in striatal membranes; conditions: 4 nM [3H]NECA, 50 nM N6-cyclopentyladenosine, 60 minutes at 25°C, read-out: RBA-2 (IC50, A2 receptor affinity)
T1 construct: Brains were thawed and then kept on ice while the striata were dissected out; tissue Pel-Freez (Rogers, Arkansas); host or cells: rat striatum (membranes)
Procedure: Brains from 200-500 g mixed sex Sprague-Dawley rats were purchased from Pel-Freez (Rogers, Arkansas). Fresh brains from male Long-Evans hooded rats (Blue Spruce Farms, Altamont, NY) gave essentially identical results. Brains were thawed and then kept on ice while the striata were dissected out. Striata were disrupted in 10 vol of ice-cold 50 mM Tris·HCl (pH 7.7 at 25°C, pH 8.26 at 5°C) (Tris) for 30 seconds in a Polytron PT―10 (Brinkmann) at setting 5. The suspension was centrifuged at 50,000 xg for ten minutes, the supernatant discarded, the pellet resuspended in 10 vol ice-cold Tris as above, recentrifuged, resuspended at 1 g/5 ml, and stored in plastic vials at -70°C (stable for at least six months). When needed, tissue was thawed at room temperature, disrupted in a Polytron, and kept on ice until used.
All incubations were for 60 minutes at 25°C in 12 x 75 mm glass tubes containing 1 ml Tris with 5 mg original tissue weight of rat weight of rat striatal membranes, 4 nM [^3H]-N-ethyl adenosine-5'-carboxamide ([^3H]NECA), 50 nM N^s-cyclopentyladenosine (to eliminate A1 receptor binding), 10 mM MgCI2, 0.1 units/ml of adenosine deaminase and 1% dimethylsulfoxide. N^6-Cyclopentyladenosine was dissolved at 10 mM in 0.02 N HCI and diluted in Tris. Stock solutions and dilutions of N^6-cyclopentyladenosine could be stored at -20°C for several months. Test compounds were dissolved at 10 mM in dimethylsulfoxide on the same day as the experiment, and diluted in dimethylsulfoxide to 100x the final incubation concentration. Control incubations received an equal volume (10 µl) of dimethylsulfoxide; the resulting concentration of dimethylsulfoxide had no effect on binding. [^3H]NECA was diluted to 40 nM in Tris. The membrane suspension (5 mg/0.79 ml) contained sufficient MgC12 and adenosine deaminase to give 10 mM and 0.1 units/ml, respectively, final concentration in the incubation. […] After all additions, the rack of tubes was vortexed, and the tubes were then incubated for 60 min at 25°C in a shaking water bath. The rack of tubes was vortexed an additional time halfway through the incubation.
Incubations were terminated by filtration through 2.4 cm GF/B filters under reduced pressure. Each tube was filtered as follows: the contents of the tube were poured onto the filter, 4 ml of ice-cold Tris were added to the tube and the contents poured onto the filter, and the filter was washed twice with 4 ml of ice-cold Tris. The filtration was complete in about 12 seconds. Filters were put in scintillation vials, 8 ml of Formula 947 scintillation fluid added, and the vials left overnight, shaken, and counted in a liquid scintillation counter at 40% efficiency.
Nonspecific binding was defined as binding in the presence of […] N^6-cyclopentyladenosine, and specific binding was defined as total binding minus nonspecific binding. The IC50 was calculated by weighted nonlinear least squares curve-fitting to the mass action equation. [formula] • where Y is cpm bound • T is cpm total binding without drug • S is cpm specific binding without drug • D is the concentration of drug • and K is the IC50 of the drug Weighting factors were calculated under the assumption that the standard deviation was proportional to the predicted value of Y. Nonspecific binding was treated as a very large (infinite) concentration of drug in the computer analysis.

[2] = system: spontaneous locomotion; assay: Mouse Activity and Screen Test Procedure (MAST): locomotor activity in actophotometer; assay type: in vivo, Swiss-Webster male mice; conditions: one hour prior to testing
Procedure: (§1) Nine unfasted Swiss-Webster male mice weighing 20-30 g are equally divided into three groups for each drug dose to be tested. There is, data for each dose level was generated by three separate groups of three mice each.
(§2) A minimum of three dose levels (10, 30, and 100 mg/kg) are tested for each drug. Treatments are administered intraperitoneally one hour prior to testing. All dosages are calculated as parent compound and given in volumes of 10 ml/kg. Compounds are dissolved or suspended in 0.2% Methocel. Control animals are injected with Methocel.
The actophotometer consists of a cylindrical chamber whose center is occupied by another cylinder which contains the illumination for six photocells located on the perimeter of the chamber. Six light-beam interruptions equal one count. Locomotor activity is recorded by computer at ten minute intervals for 60 minutes.
Data: The data obtained from the screen test are expressed as percent of mice falling off the screen. Data derived from locomotor activity of drug treated mice are compared to the activity of vehicle treated animals and are expressed as percent inhibition of spontaneous locomotion. All percentages reported for inhibition of locomotion (LI) are based upon data accumulated for one hour. […] An overall dose rating is obtained by the following criteria:
LAD refers to the lowest dose at which an A rating is achieved. […] The compounds are identified in the Examples.

[3] = system: mice falling off the inverted screen; assay: Mouse Activity and Screen Test Procedure (MAST): screen test (ST); assay type: in vivo, Swiss-Webster male mice; conditions: one hour postinjection, percent of mice falling off the screen
Excerpt: The compounds of the invention are new chemical substances which are useful as pharmaceutical agents for the treatment of psychoses. The antipsychotic activity of representative compounds of the invention was established by the Mouse Activity and Screen Test Procedure (MAST) described below.
as §1, §2
Testing: A two part testing procedure is started one hour postinjection. First, the screen test (ST) is performed (see Pharmac. Biochem. Behav. 6,351-353,1977). Briefly this test consists of placing mice on individual wire screens which are then rotated 180 degrees at the start of a 60 second observation period. The number of mice falling off the inverted screen is recorded.
Data: The data obtained from the screen test are expressed as percent of mice falling off the screen. Data derived from locomotor activity of drug treated mice are compared to the activity of vehicle treated animals and are expressed as percent inhibition of spontaneous locomotion. All percentages reported for inhibition of locomotion (LI) are based upon data accumulated for one hour. Both phases of testing are graded: A=60-100%; C=31-59%; and N=0-30%. An overall dose rating is obtained by the following criteria:
LAD refers to the lowest dose at which an A rating is achieved. […] Utilizing this procedure, an overall dose rating of A was obtained for the noted compound at the indicated dose. The compounds are identified in the Examples.

T1 sequence (P30543 whole entry): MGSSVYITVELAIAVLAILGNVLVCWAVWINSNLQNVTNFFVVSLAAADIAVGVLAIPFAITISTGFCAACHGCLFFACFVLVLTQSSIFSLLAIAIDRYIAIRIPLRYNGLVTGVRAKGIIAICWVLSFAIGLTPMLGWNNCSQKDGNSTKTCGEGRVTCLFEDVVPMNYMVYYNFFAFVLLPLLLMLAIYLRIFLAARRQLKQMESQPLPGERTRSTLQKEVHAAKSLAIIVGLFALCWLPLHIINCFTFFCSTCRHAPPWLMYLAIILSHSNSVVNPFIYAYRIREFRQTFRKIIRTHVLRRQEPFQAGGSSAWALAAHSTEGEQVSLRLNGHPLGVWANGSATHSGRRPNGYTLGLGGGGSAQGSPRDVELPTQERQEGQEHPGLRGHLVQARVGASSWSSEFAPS

SMILES	IC50 [1]	Screen Test Failure ([3]; 1 mg/kg intraperitoneally)	Screen Test Failure ([3]; 3 mg/kg intraperitoneally)	Screen Test Failure ([3]; 10 mg/kg intraperitoneally)	Screen Test Failure ([3]; 30 mg/kg intraperitoneally)	Screen Test Failure ([3]; 100 mg/kg intraperitoneally)	Inhibition of Mouse Locomotion Activity ([2]; 1 mg/kg intraperitoneally)	Inhibition of Mouse Locomotion Activity ([2]; 3 mg/kg intraperitoneally)	Inhibition of Mouse Locomotion Activity ([2]; 10 mg/kg intraperitoneally)	Inhibition of Mouse Locomotion Activity ([2]; 30 mg/kg intraperitoneally)	Inhibition of Mouse Locomotion Activity ([2]; 100 mg/kg intraperitoneally)
COc1cc(OC)c2c(c1)OC(C)(C)CC2Nc1ncnc2c1ncn2[C@@H]1O[C@H](CO)[C@@H](O)[C@H]1O (stereo partly drawn) [Example 14]	37900 nM	–	–	0%	0%	0%	–	–	8%	13%	2%
OC[C@H]1O[C@@H](n2cnc3c(NC4CCSc5ccccc54)ncnc32)[C@H](O)[C@@H]1O (stereo partly drawn) [Example 15]	86.5 nM	–	11%	22%	55%	–	–	88%	95%	97%	–
O=S1(=O)CCC(Nc2ncnc3c2ncn3[C@@H]2O[C@H](CO)[C@@H](O)[C@H]2O)c2ccccc21 (stereo partly drawn) [Example 16, N^6-[4-Benzothiopyran-1,1-dioxideamino]adenosine]	1390 nM	–	0%	22%	55%	–	–	15%	69%	98%	–

More lines, main results first:

IC50 [1]	Screen Test Failure ([3]; 1 mg/kg intraperitoneally)	Screen Test Failure ([3]; 3 mg/kg intraperitoneally)	Screen Test Failure ([3]; 10 mg/kg intraperitoneally)	Screen Test Failure ([3]; 30 mg/kg intraperitoneally)	Screen Test Failure ([3]; 100 mg/kg intraperitoneally)	SMILES	Inhibition of Mouse Locomotion Activity ([2]; 1 mg/kg intraperitoneally)	Inhibition of Mouse Locomotion Activity ([2]; 3 mg/kg intraperitoneally)	Inhibition of Mouse Locomotion Activity ([2]; 10 mg/kg intraperitoneally)	Inhibition of Mouse Locomotion Activity ([2]; 30 mg/kg intraperitoneally)	Inhibition of Mouse Locomotion Activity ([2]; 100 mg/kg intraperitoneally)
360 nM	0%	0%	11%	22%	67%	Cc1ccc2c(c1C)OC(C)C(Nc1ncnc3c1ncn3[C@@H]1O[C@H](CO)[C@@H](O)[C@H]1O)C2 (stereo partly drawn) [Example 11]	13%	27%	90%	95%	99%
2940 nM	–	–	0%	0%	22%	CC(C)(C)c1ccc2c(c1)OCC(Nc1ncnc3c1ncn3[C@@H]1O[C@H](CO)[C@@H](O)[C@H]1O)C2 (stereo partly drawn) [Example 13, N^6-[7-t-Butyl-3-chromanylamino)adenosine]	–	–	50%	82%	88%

From EP0181109B1, “N6-benzopyrano- and benzothiopyrano-adenosines” (WARNER-LAMBERT COMPANY, priority 1984, dated 1986)
